Assays:
[1] = test system: T1, purified chitinase from black soybean seeds (acidic chitinase, 20.1 kDa); assay: fluorimetric release of 4-methylumbelliferone, Lineweaver-Burk; assay type: biochemical, Glycine max; conditions: pH 5.0, 40 °C, 0.05 M sodium acetate, 30 min
T1 construct: native purification from seeds; monomer; smaller than known soybean seed class III (28 kDa) and class I (32 kDa) chitinases; trace basic isoform co-purified
Text: fluorimetric release of 4-methylumbelliferone, Lineweaver-Burk on purified chitinase from black soybean seeds (acidic chitinase, 20.1 kDa)

[2] = test system: T1, purified chitinase from black soybean seeds (acidic chitinase, 20.1 kDa); assay: p-nitrophenol release at […] nm, Lineweaver-Burk; assay type: biochemical, Glycine max; conditions: pH 4.0, 37 °C, 0.05 M acetate, 30 min

Km [1]	Km [2]	SMILES
17.4 µM		CC(=O)N[C@H]1[C@H](Oc2ccc3c(C)cc(=O)oc3c2)O[C@H](CO)[C@@H](O[C@@H]2O[C@H](CO)[C@@H](O[C@@H]3O[C@H](CO)[C@@H](O)[C@H](O)[C@H]3NC(C)=O)[C@H](O)[C@H]2NC(C)=O)[C@@H]1O [4-MU-GlcNAc3]
	245 µM	CC(=O)N[C@H]1[C@H](Oc2ccc([N+](=O)[O-])cc2)O[C@H](CO)[C@@H](O[C@@H]2O[C@H](CO)[C@@H](O[C@@H]3O[C@H](CO)[C@@H](O[C@@H]4O[C@H](CO)[C@@H](O)[C@H](O)[C@H]4NC(C)=O)[C@H](O)[C@H]3NC(C)=O)[C@H](O)[C@H]2NC(C)=O)[C@@H]1O [pNp-GlcNAc4]
